Data reported in patent EP2999467B1, “USE OF A COMBINATION OF TWO COMPOUNDS FOR THE TREATMENT AND/OR PREVENTION OF BONE DISORDERS” (Institut National de la Recherche Agronomique (INRA), priority 2013, dated 2014).
Read-outs that look alike come from different tables or passages of the source.

Experiments:
ostéocalcine sérique = assay: Ovariectomy-induced bone loss: serum osteocalcin (ELISA); type: in vivo, souris C57BL/6J; details: daily Fisétine 25mg/kg by gavage
Method: Tout au long de l'étude, les animaux ont été logés dans un environnement contrôlé (12:12 h cycle lumière-obscurité, 20-22 ° C, 50-60% d'humidité relative, 1 souris par cage en plastique avec un accès libre à l'eau. Les souris C57BL/6J ont été livrées 2 semaines avant l'étude pour l'acclimatation à notre environnement sous régime standard semi-purifié. Pour toutes les expériences, les souris de 8 semaines (n=12/groupe) ont été gavées avec le véhicule (1% d'éthanol, 0,2% hydroxypropylcellulose dans de l'eau distillée) ou avec la fisétine (5 à 50 mg/kg dans le véhicule) pendant une semaine. Ensuite, pour l'expérience OVX, les souris ont été pseudo-opérées ou ovariectomisées bilatéralement et ont reçu quotidiennement par gavage le véhicule ou la fisétine pendant 4 semaines. A la fin de l'expérimentation, le sérum, les cornes utérines, les tibias et les fémurs ont été recueillis pour analyse. Pour l'expérience de perte osseuse induite par LPS, le véhicule (PBS) ou le LPS (sérotype 026: B6, 25mg/kg) ont été injectés par voie sous-cutanée au niveau de la calotte crânienne, une fois par semaine pendant 3 semaines sous anesthésie. Durant ces 3 semaines, les souris ont reçu soit le véhicule (1% d'éthanol, 0,2% hydroxypropylcellulose dans de l'eau distillée) soit la fisétine quotidiennement par gavage. […]

[1] = system: préostéoblastes primaires; assay: Mineralisation test (alizarin red staining of mineralised nodules); type: cell-based, rats Wistar; details: Rattus norvegicus, 408 h, 17 days of culture, read-out: minéralisation (nodules minéralisés) par rapport à la condition « AA+βGP seuls »
From the text: (§1) Les préostéoblastes primaires ont été isolés à partir de la calotte crânienne de rats Wistar nouveaux-nés par digestion enzymatique comme précédemment décrit [Declercq, H., Van den Vreken, N., De Maeyer, E., Verbeeck, R., Schacht, E., De Ridder, L., and Cornelissen, M. (2004). Isolation, proliferation and differentiation of osteoblastic cells to study cell/biomaterial interactions: comparison of different isolation techniques and source. Biomaterials 25, 757-68.]. Les précurseurs d'ostéoclastes RAW264.7 ont été obtenus auprès de l'ATCC (Manassas, VA, USA). Les préostéoblastes et les RAW264.7 ont été cultivés dans du milieu α-MEM (Invitrogen, Carlsbad, CA, USA) supplémenté avec 10% de SVF décomplémenté et de 100 unités/ml de pénicilline-streptomycine.
Les préostéoblastes primaires ont été ensemencés à 1,5 * 10^5 cellules par puit dans des plaques 12 puits traitées au collagène. Trente-six heures plus tard, les cellules ont été prétraitées avec du DMSO comme témoin ou de la fisétine (1 à 5 µM) pendant 12 heures, puis induites à se différentier avec 25 µg/ml d'acide ascorbique et 5 mM de bêta-glycérophosphate en présence de DMSO ou de fisétine (1 à 5 µM). Après 17 jours de culture avec un changement des milieux tous les 2 jours, les cellules ont été fixées avec de l'éthanol à 70% et les dépôts de calcium ont été colorés avec une solution à 40 mM d'alizarine rouge (pH 4,2). La zone et l'intensité des nodules ont été quantifiées en utilisant le logiciel ImageJ (http://rsb.info.nih.gov/ij/).

[2] = system: préostéoblastes primaires; assay: ALP activity measurement in differentiating osteoblasts; type: cell-based, rats Wistar; details: Rattus norvegicus, Osteoblast, read-out: activité ALP par rapport à la condition « AA+βGP seuls »
From the text: as §1
Les préostéoblastes primaires ont été ensemencés à 3500 cellules par puits dans des plaques 96 puits traitées au collagène. Trente-six heures plus tard, les cellules ont été prétraitées avec du DMSO comme témoin ou de la fisétine (1 à 5 µM) pendant 12 heures, puis induites à se différentier avec 25 µg/ml d'acide ascorbique et 5 mM de bêta-glycérophosphate en présence de DMSO ou de fisétine (1 à 5 µM). L'activité enzymatique ALP a été mesurée en cinétique après 0, 5, 7 et 12 jours de traitement avec un changement de milieux tous les 2 jours. Les cellules ont été lysées par des cycles de gel-dégel et les lysats ont subi une homogénéisation dans 200 µl de tampon chlorure de magnésium hexahydrate, di-éthanoamine à un pH de 9,8. Les lysats cellulaires (10 µl) ont été ajoutés à 200 µl de solution de p-nitrophényl phosphate (16,2 mM) et l'absorbance a été mesurée en utilisant un lecteur de microplaques à 405 nm toutes les 90 seconds pendant 30min. Pour chaque échantillon, la concentration de protéines a été analysée pour exprimer les résultats sous forme de µmol de p-nitrophenol/heure/mg de protéines.

phosphatase alcaline = assay: Quantitative RT-PCR, osteoblast differentiation marker: alkaline phosphatase; type: cell-based, rats Wistar; details: Rattus norvegicus; for activation at 5 µM: AA+βGP+Fisétine 5µM
From the text: as §1
L'extraction des ARN totaux (cellules et fémurs) a été effectuée en utilisant le réactif TRIzol, la transcription inverse (RT) a été réalisée à l'aide du kit de synthèse d'ADNc Dynamo (Thermo Scientific, Waltham, MA, USA) et l'analyse PCR en temps réel a été réalisée avec le Mastercycler ep Realplex2 (Eppendorf, Hambourg, Allemagne). Toutes les valeurs ont été normalisées par la GAPDH. Les séquences des oligos utilisés sont : ALP F 5'-GGCCAGCTACACCACAACA-3' / ALP R 5'-[…] -3' / OCN F 5'-AGACTCCGGCGCTACCTT -3' / OCN R 5'-[…]-3'/ COL1 F 5'-[…]-3' / COL1 R 5'-[…]-3' / GAPDH F 5'-[…]-3' / GAPDH R 5'-[…]-3'

SMILES: O=c1c(O)c(-c2ccc(O)c(O)c2)oc2cc(O)ccc12 [Fisétine, 3,3',4',7-tétrahydroxyflavone]
- taux sérique d'ostéocalcine par rapport à la condition témoin « SH » (ostéocalcine sérique): +61%
- activation at 1 µM ([1]; AA+βGP+Fisétine 1µM): 62%
- activation at 5 µM ([1]; AA+βGP+Fisétine 5µM): 169%
- activation at 2.5 µM ([1]; AA+βGP+Fisétine 2,5µM): 105%
- activation at 1 µM ([2]; AA+βGP+Fisétine 1 µM): 32%
- activation at 5 µM ([2]; AA+βGP+Fisétine 5µM): 87%
- activation at 2.5 µM ([2]; AA+βGP+Fisétine 2,5µM): 63%
- activation at 1 µM (phosphatase alcaline; 168 h, AA+βGP+Fisétine 1 µM, J7, read-out: expression de la phosphatase alcaline par rapport à la condition « AA+βGP seuls »): 84%
- activation at 5 µM (phosphatase alcaline; 168 h, J7, read-out: expression de la phosphatase alcaline par rapport à la condition « AA+βGP seuls »): 146%
- activation at 1 µM (phosphatase alcaline; 336 h, AA+βGP+Fisétine 1µM, J14, read-out: expression de la phosphatase alcaline par rapport à la condition « AA+βGP seuls »): 37%
- activation at 5 µM (phosphatase alcaline; 336 h, J14, read-out: expression de la phosphatase alcaline par rapport à la condition « AA+βGP seuls »): 88%
